For 37 molecules, IC50 results are on record in patent US10640495B2, “Heterocycle derivatives having TrkA inhibitory activity” (Shionogi & Co., Ltd., priority 2015, dated 2020).

SMILES strings stand for the structures. pIC50: −log10 of the molar value.

For the first assay, the target named is human TrkA (Homo sapiens (Human), UniProt P04629). Kind of assay: Human TrkA inhibition assay (Test Example 2). Type of assay: biochemical. Particulars: Table 152, human TrkA inhibition; read-out: IC50_nM. Put shortly: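 Recombinant TrkA (1 nmol/L) was preincubated 15 min at room temperature with compound in HEPES/MgCl2/DTT buffer, then reacted with FL-peptide 27 (1.5 μmol/L) and ATP (500 μmol/L) for 120 min at 37 °C. After EDTA stop, substrate phosphorylation was read by microfluidic mobility shift. IC50 came from logistic regression over 3-fold dilution series.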
Chain of human TrkA (P04629 440-796): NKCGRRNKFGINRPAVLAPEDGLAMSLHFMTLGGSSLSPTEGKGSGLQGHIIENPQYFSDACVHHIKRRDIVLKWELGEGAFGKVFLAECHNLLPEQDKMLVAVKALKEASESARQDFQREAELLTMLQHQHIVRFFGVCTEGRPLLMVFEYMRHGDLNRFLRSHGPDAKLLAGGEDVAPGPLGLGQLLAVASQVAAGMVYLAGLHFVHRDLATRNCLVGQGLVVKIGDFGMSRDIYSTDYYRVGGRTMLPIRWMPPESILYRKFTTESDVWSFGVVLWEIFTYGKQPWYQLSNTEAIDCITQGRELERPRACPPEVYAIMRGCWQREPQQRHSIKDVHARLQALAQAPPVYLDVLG
`COCCN1C[C@@H](NC(=O)Nc2c(C)c(C3=CCNCC3)nn2-c2ccccc2)[C@H](c2ccc(F)c(F)c2)O1` (racemic) [Compound I-30]: the pIC50 was greater than 7.00.

Turning to `COCCN1C[C@@H](NC(=O)Nc2c(C)c(-c3cnn(C)c3)nn2-c2ccccc2)[C@H](c2ccc(F)c(F)c2)O1` (racemic) [Compound I-8], the pIC50 was greater than 7.00.

For `COCC[C@@H]1O[C@@H](NC(=O)Nc2c(C)c(-c3cnn(C)c3)nn2-c2ccccc2)[C@H](c2ccccc2)O1` (racemic) [Compound I-5], the pIC50 was greater than 7.00.

The same assay, now with this note: Table 153, human TrkA inhibition; read-out: IC50.
For `COCCN1C[C@@H](NC(=O)Nc2c(C)c(-c3ccc4nnc(C)n4c3)nn2-c2ccccc2)[C@H](c2ccnc(F)c2)O1` (racemic) [Compound I-158], the pIC50 was greater than 7.00.

As to `COCCN1C[C@@H](NC(=O)Nc2c(C)c(C3=CCNCC3)nn2-c2ccccc2)[C@H](c2cnc(F)c(F)c2)O1` (racemic) [Compound I-48], the pIC50 was greater than 7.00.

Regarding `COCCN1C[C@@H](NC(=O)Nc2c(C)c(-c3ccc(C#N)nc3)nn2-c2ccccc2)[C@H](c2ccc(F)c(F)c2)O1` (racemic) [Compound I-129], the pIC50 was greater than 7.00.

As to `CCNC(=O)c1cc(-c2nn(-c3ccccc3)c(NC(=O)N[C@@H]3CN(CCOC)O[C@H]3c3ccnc(F)c3)c2C)cnc1OC` (racemic) [Compound I-110], the pIC50 was greater than 7.00.

As to `COCCN1C[C@@H](NC(=O)Nc2c(C)c(-c3cnc4c(c3)c(CO)nn4C)nn2-c2ccccc2)[C@H](c2cnc(F)c(F)c2)O1` (racemic) [Compound I-84], the pIC50 was greater than 7.00.

`CNC(=O)c1cc(-c2nn(-c3ccccc3)c(NC(=O)N[C@@H]3CN(CCOC)O[C@H]3c3cnc(F)c(F)c3)c2C)cn(C)c1=O` (racemic) [Compound I-75]: the pIC50 was greater than 7.00.

Turning to `COCCN1C[C@H](NC(=O)Nc2c(C)c(OCC(C)(C)O)nn2-c2ccccc2)[C@@H](c2cnc(F)c(F)c2)O1` [Compound I-83], the pIC50 is less than 6.00.

With `COCC[C@@H]1C[C@@H](NC(=O)Nc2c(C)c(C3=CCN(C(=O)CO)CC3)nn2-c2ccccc2)[C@H](c2ccc(F)c(F)c2)O1` (racemic) [Compound I-56], the pIC50 was greater than 7.00.

Turning to `COCCN1C[C@@H](NC(=O)Nc2c(C)c(-c3cnc(OC)c(C(=O)NC4CCOCC4)c3)nn2-c2ccccc2)[C@H](c2ccnc(F)c2)O1` (racemic) [Compound I-111], the pIC50 was greater than 7.00.

The same assay, now with this note: Table 154, human TrkA inhibition; read-out: IC50.
With `COCCN1C[C@@H](NC(=O)Nc2c(C)c(-c3cnc4c(ccc(=O)n4C)c3)nn2-c2ccccc2)[C@H](c2ccc(F)c(F)c2)O1` [Compound I-229], the pIC50 is greater than 7.00.

In the case of `COCCN1C[C@@H](NC(=O)Nc2c(C)c(-c3ccc(C(=O)OC)nc3)nn2-c2ccccc2)[C@H](c2ccc(F)c(F)c2)O1` (racemic) [Compound I-199], the pIC50 is greater than 7.00.

`COCCN1C[C@@H](NC(=O)Nc2c(C)c(-c3cnc(N4CC(O)C4)nc3)nn2-c2ccccc2)[C@H](c2cnc(F)c(F)c2)O1` [Compound I-210]: the pIC50 is greater than 7.00.

Consider `COCCN1C[C@@H](NC(=O)Nc2c(C)c(-c3cnc(OC)c(C(N)=O)c3)nn2-c2ccccc2)[C@H](c2cnc(F)c(F)c2)O1` [Compound I-180], for which the pIC50 was greater than 7.00.

Consider `COCCN1C[C@@H](NC(=O)Nc2c(C)c(-c3ccc(C(=O)O)nc3)nn2-c2ccccc2)[C@H](c2ccc(F)c(F)c2)O1` (racemic) [Compound I-214], for which the pIC50 is greater than 7.00.

For the molecule `COCC[C@@H]1C[C@@H](NC(=O)Nc2c(C)c(-c3cnc(Cl)nc3)nn2-c2ccccc2)[C@H](c2ccnc(F)c2)O1` [Compound I-248], the pIC50 was greater than 7.00.

Still in this assay, the particulars now being: Table 155, human TrkA inhibition; read-out: IC50.
For the molecule `CNC(=O)c1cc(-c2nn(-c3ccccc3)c(NC(=O)N[C@@H]3CNO[C@H]3c3ccc(F)c(F)c3)c2C)cnc1OC` (racemic) [Compound I-474], the pIC50 was 6.00 to 7.00.

Regarding `COCCN1C[C@@H](NC(=O)Nc2c(C)c(OCc3cccnc3)nn2-c2ccccc2)[C@H](c2ccnc(F)c2)O1` (racemic) [Compound I-455], the pIC50 is greater than 7.00.

With `COCCN1C[C@@H](NC(=O)Nc2c(C)c(-c3cnc(N4CCCC4)nc3)nn2-c2ccccc2)[C@H](c2ccnc(F)c2)O1` (racemic) [Compound I-378], the pIC50 is greater than 7.00.

Consider `COCCN1C[C@@H](NC(=O)Nc2c(C)c(OCC3CC3)nn2-c2ccccc2)[C@H](c2ccnc(F)c2)O1` (racemic) [Compound I-502], for which the pIC50 was greater than 7.00.

With `COCCN1C[C@@H](NC(=O)Nc2c(C)c(N3CC(c4ccc(F)cc4)C3)nn2-c2ccccc2)[C@H](c2cnc(F)c(F)c2)O1` (racemic) [Compound I-336], the pIC50 is greater than 7.00.

Turning to `COCCN1C[C@@H](NC(=O)Nc2c(C)c(-c3cnc4c(c3)ncn4C)nn2-c2ccccc2)[C@H](c2cc(F)nc(F)c2)O1` (racemic) [Compound I-320], the pIC50 was greater than 7.00.

The assay is the same for the next values; noted with them: Table 156, human TrkA inhibition; read-out: IC50.
Take `COCCN1C[C@@H](NC(=O)Nc2c(C)c(-c3ccc(OC)cc3)nn2-c2ccccc2)[C@H](c2ccnc(F)c2)O1` (racemic) [Compound I-554]: the pIC50 is greater than 7.00.

For `CCN1C[C@@H](NC(=O)Nc2c(C)c(OCC3CN(C)CCO3)nn2-c2ccccc2)[C@H](c2ccc(F)c(F)c2)O1` (stereo partly shown) [Compound I-548], the pIC50 was greater than 7.00.

Still in this assay, the particulars now being: Table 157, human TrkA inhibition; read-out: IC50.
As to `COCCN1C[C@@H](NC(=O)Nc2c(C)c(-c3ccnc(CCN(C)C)c3)nn2-c2ccccc2)[C@H](c2ccc(F)c(F)c2)O1` [Compound I-643], the pIC50 is greater than 7.00.

For the molecule `COCCN1C[C@@H](NC(=O)Nc2c(C)c(-c3cnc(N4CC[C@H](N(C)C)C4)nc3)nn2-c2ccccc2)[C@H](c2ccnc(F)c2)O1` [Compound I-586], the pIC50 was greater than 7.00.

Take `CCN1C[C@@H](NC(=O)Nc2c(C)c(OCC3CCN(C(=O)COC)CC3)nn2-c2ccccc2)[C@H](c2ccc(F)c(F)c2)O1` (racemic) [Compound I-608]: the pIC50 was greater than 7.00.

As to `CCN1C[C@@H](NC(=O)Nc2c(C)c(OCC(C)(C)O)nn2-c2ccccc2)[C@H](c2ccc(F)c(F)c2)O1` (racemic) [Compound I-656], the pIC50 is 6.00 to 7.00.

For the molecule `COCCN1C[C@@H](NC(=O)Nc2c(C)c(-c3cnc(N4CCN(C)C[C@H]4C)nc3)nn2-c2ccccc2)[C@H](c2ccnc(F)c2)O1` [Compound I-594], the pIC50 was greater than 7.00.

Still in this assay, the particulars now being: human TrkA 1 nmol/L, ATP 500 μmol/L, 120 min at 37° C.; read-out: IC50 values (TrkA phosphorylation inhibition).
For the molecule `CCN1C[C@@H](NC(=O)Nc2c(C)c(-c3cnn(C)c3)nn2-c2ccccc2)[C@H](c2ccccc2)O1` (racemic) [Compound I-3], the pIC50 was 6.92.

For the molecule `COCCN1C[C@@H](NC(=O)Nc2c(C)c(-c3cnc(OC)nc3)nn2-c2ccccc2)[C@H](c2ccnc(F)c2)O1` (racemic) [Compound I-119], the pIC50 is 8.40.

As to `COCCN1C[C@@H](NC(=O)Nc2c(C)c(-c3ccc(N=S(C)(C)=O)nc3)nn2-c2ccccc2)[C@H](c2ccc(F)c(F)c2)O1` (racemic) [Compound I-66], the pIC50 was 8.80.

With `COCCN1C[C@@H](NC(=O)Nc2c(Cl)c(-c3cnc(OC)nc3)nn2-c2ccccc2)[C@H](c2ccnc(F)c2)O1` (racemic) [Compound I-674], the pIC50 is 8.24.

Consider `COCCN1C[C@@H](NC(=O)Nc2c(C)c(-c3cnc4c(c3)NCC(=O)N4)nn2-c2ccccc2)[C@H](c2ccnc(F)c2)O1` (racemic) [Compound I-356], for which the pIC50 is 8.82.

Turning to `COCCN1C[C@@H](NC(=O)Nc2c(C)c(-c3ccnc(C(=O)NOC)c3)nn2-c2ccccc2)[C@H](c2ccnc(F)c2)O1` (racemic) [Compound I-232], the pIC50 was 8.38.
